Reference: PMC9653804, “Multifunctional Derivatives of Spiropyrrolidine Tethered Indeno-Quinoxaline Heterocyclic Hybrids as Potent Antimicrobial, Antioxidant and Antidiabetic Agents: Design, Synthesis, In Vitro and In Silico Approaches” (Molecules, 2022)
Converted amounts (≈) assume the structure as drawn.

How the values were obtained:
[1] = system: Pseudomonas aeruginosa ATCC 27853; assay: Antimicrobial activity (MIC, MBC) against P. aeruginosa; type: cell-based; settings: P. aeruginosa ATCC 27853; '-' = No activity
[2] = Radical scavenging activity ABTS; settings: for IC50: ABTS radical scavenging
Protocol: The ABTS assay was performed as previously described by Tuberoso et al.. ABTS^+ radical was generated by oxidation of ABTS with potassium persulfate. The blue–green ABTS was produced through the reaction between 2 mM ABTS and […] potassium persulfate in water. The mixture was left to stand in the dark for 12 to 16 h before use. The ABTS solution was diluted with methanol to an absorbance of 0.700 ± 0.005 at 734 nm. Then 2 mL of diluted ABTS solution was mixed with 100 μL of samples and absorbance was measured after 1 min incubation at room temperature. A standard curve was obtained by using Trolox as standard solution. The results were expressed as μM Trolox equivalent.
The mixture of 7 mmol/L aqueous ABTS solution with 2.45 mmol/L potassium persulfate solution constitutes a stable ABTS^+ stock solution that was allowed to stand in the dark and at room temperature for 12 to 16 h before use. A 1 mL sample of the diluted ABTS solution (adjusted to 0.7 ± 0.02 at […]) was added to 10 μL of each product. The absorbance was determined after 6 min. The percentage inhibition of the ABTS˙ radical was calculated from the following equation:% inhibition = (Abscontrol − Abstest)/Abscontrol × 100
Abs control: the control absorbance.
Abs test: the absorbance of the test sample after 6 min.

[3] = DPPH free radical scavenging activity; settings: for IC50: DPPH radical scavenging
Protocol: DPPH, the stable artificial free radicals, has been widely used for the measurement of free radical scavenging capacity of the compounds in ethanol and aqueous systems. Briefly, 2 mL DPPH solution (0.2 mM, in 95% ethanol) was incubated with 2 mL different concentrations of compounds solution. Then, the reaction mixture was shaken and incubated in the dark for 40 min at room temperature. The absorbance was immediately recorded at 517 nm against ethanol with a spectrophotometer (Metash, model UV-5200, Shanghai Xiwen Biotech. Co., Ltd, Shanghai, China). The DPPH free radical scavenging rate was calculated using the equation:DPPH scavenging activity (%) = A0 − A1/A0 × 100 where A0 was the absorbance of the control reaction (containing all reagents except the tested compound), and A1 was the absorbance of the test reaction (containing all reagents with the tested compound). The percentage of DPPH radical scavenging activity was plotted against the sample concentration to acquire the IC50 value, defined as the concentration of sample necessary to cause 50% inhibition. Radical scavenging activity (RSA) was calculated from the IC50 value as the equation: RSA = pIC50 = −lg[IC50]. The smaller the IC50 value, the larger is the RSA value and the higher is the antioxidant activity.

[4] = system: Candida albicans ATCC 90028; assay: Antifungal activity (MIC, MFC) against C. albicans; type: cell-based; settings: C. albicans ATCC 90028, '-' = No activity; for MFC/MIC: fungicidal ≤ 4, fungistatic > 4
[5] = system: Micrococccus luteus NCIMB 8166; assay: Antimicrobial activity (MIC, MBC) against M. luteus; type: cell-based; settings: M. luteus NCIMB 8166; '-' = No activity
Candida krusei ATCC 6258 = assay: Antifungal activity (MIC, MFC) against C. krusei; type: cell-based; settings: C. krusei ATCC 6258, '-' = No activity; for MFC / MIC: Pichia kudriavzevii, ATCC6258
[6] = system: Escherichia coli ATCC 25922; assay: Antimicrobial activity (MIC, MBC) against E. coli; type: cell-based; settings: E. coli ATCC 25922; '-' = No activity
[7] = system: Staphylococcus aureus ATCC 25923; assay: Antimicrobial activity (MIC, MBC) against S. aureus; type: cell-based; settings: S. aureus ATCC 25923; for MBC/MIC: bactericidal ≤ 4, bacteriostatic > 4; for MIC: Staphylococcus aureus, ATCC25923, '-' = No activity
[8] = Ferric reducing power assay (FRAP); settings: relative to standard Trolox
Protocol: The FRAP assay was used to determine the AC of the products by the reduction of Fe(III) and Fe (II). Briefly, Fe(III) was reduced to Fe(II), and Fe(II) was mixed with TPTZ to form a blue complex with strong absorption peak at 593 nm at pH = 3.6 condition. Acetate buffer (pH = 3.6), TPTZ solution (10 mM, in 40 mM hydrochloric acid) and FeCl3 solution (20 mM, in water) were mixed in a ratio of 10:1:1 to prepare FRAP working solution. The products solution (0.5 mL) was mixed with 4.0 mL FRAP working solution, and reacted at 37 °C for 30 min in the dark, and the absorbance at 593 nm was immediately recorded with a spectrophotometer. The result was expressed as the equivalent amount of Trolox per mole of the samples (mol TE/mol).

[9] = Ferric reducing power assay (FRAP)

Row | MBC/MIC [1] | IC50 [2] [µM] | IC50 [3] [µM] | MIC ([4]; Candida albicans, ATCC90028) [mM] | MBC/MIC [5] | MFC/MIC (Candida krusei ATCC 6258) | MIC (Candida krusei ATCC 6258) [mM] | melting point [°C] | MBC/MIC [6] | MIC [7] [mM] | IC50 [9] [µM] | Compound | ABTS scavenging activity, fold higher than Trolox ([2]; relative to standard Trolox) [fold] | DPPH scavenging activity, fold better than Trolox ([3]; relative to standard Trolox) [fold] | MFC/MIC [4] | MFC ([4]; Candida albicans, ATCC90028) [mM] | MFC (Candida krusei ATCC 6258) [mM] | MBC/MIC [7] | FRAP activity, fold higher than Trolox [8]
1 | 4 | 12.2 ± 0.18 | 6.12 ± 0.01 | 62.9 (≈ 31.1 mg/mL) | 1 | 1 | 31.4 (≈ 15.6 mg/mL) | 182 to 184 | 2 | 15.7 (≈ 7.78 mg/mL) | 6.54 ± 0.18 | CN1C(=O)CC2(C1=O)C(c1ccc(Cl)cc1)CN(C)C21c2ccccc2-c2nc3ccccc3nc21 (stereo not drawn) [5e, Spiro [2,11″]indeno-[1,2b]-quinoxaline-spiro-[3,3′]-N-methylsuccinimide-4-(4-chlorophenyl)hexahydro-1H-pyrrolidines] | ~8 | 5.1 | 1 | 62.9 (≈ 31.1 mg/mL) | 31.4 (≈ 15.6 mg/mL) | 16 | about 6.5 fold
2 | 2 | 18.04 ± 0.13 | 19.1 ± 0.23 | 66.7 (≈ 31.1 mg/mL) | 1 | 1 | 66.7 (≈ 31.1 mg/mL) | 203 to 205 | 2 | 33.3 (≈ 15.6 mg/mL) | 6.32 ± 0.68 | CN1C(=O)CC2(C1=O)C(c1cccs1)CN(C)C21c2ccccc2-c2nc3ccccc3nc21 (stereo not drawn) [5h, Spiro [2,11″]indeno-[1,2b]-quinoxaline-spiro-[3,3′]-N-methylsuccinimide-4-(4-thiophenyl)hexahydro-1H-pyrrolidines] |  |  | 4 |  | 66.7 (≈ 31.1 mg/mL) | 16 | about 6.5 fold
3 | 4 | 11.4 ± 0.36 | 7.8 ± 0.32 |  | 1 | 1 | 31.4 (≈ 15.6 mg/mL) | 193 to 195 | 2 |  | 5.98 ± 0.52 | CN1C(=O)CC2(C1=O)C(c1cccc(Cl)c1)CN(C)C21c2ccccc2-c2nc3ccccc3nc21 (stereo not drawn) [5i, Spiro [2,11″]indeno-[1,2b]-quinoxaline-spiro-[3,3′]-N-methylsuccinimide-4-(3-chloro-phenyl)hexahydro-1H-pyrrolidines] |  |  |  |  | 31.4 (≈ 15.6 mg/mL) | 4 | about 6.5 fold
